The text below walks through data of patent US11945812B2, “Annulated 2-amino-3-cyano thiophenes and derivatives for the treatment of cancer” (Boehringer Ingelheim International GmbH, priority 2020, dated 2024).

Like-named read-outs stand apart in the source and are kept apart here.

Series [1] concerns the target T1, KRAS G12C::SOS1 protein-protein interaction (Homo sapiens, UniProt P01116, C118S/C51S/C80L/G12C).
T1 construct: His6 (N); host or cells: E. coli
Nature of the series: KRAS::SOS1 AlphaScreen binding assay. The following applies: KRAS G12C::SOS1 AlphaScreen. A general note: Bead proximity is the source of the signal in Alpha formats.

In series [2] the target is Ba/F3 cells bearing a KRAS G12C mutation (Homo sapiens, UniProt P01116, G12C, cells depend on it). Description: Ba/F3 cell model proliferation assay (AlamarBlue, 72 h). The series is classed as cell-based.
The nature of series [3]: Plasma protein binding (equilibrium dialysis), human plasma. The series is classed as in vitro ADME. Particulars: read-out: PPB human fu.
Series [4] can be described thus: Plasma protein binding (equilibrium dialysis), serum 10% FCS in PBS. It counts as in vitro ADME. The following applies: bovine, 10% FCS in PBS (serum), read-out: PPB 10% FCS fu. A general note: Equilibrium dialysis compares concentrations on both sides of a semipermeable membrane.
The next series relates to NCI-H358 cells. Nature of the series: NCI-H358 CTG proliferation assay (120 h) (NSCLC). The series is classed as cell-based. Particulars: Homo sapiens, read-out: IC50 NCl-H358. As for the experimental part:
NCI-H358 CTG Proliferation Assay (120 h) (NSCLC)
NCI-H358 cells (ATCC No. CRL-5807) were dispensed into white bottom opaque 96 well plates (Perkin Elmer cat no. 5680) at a density of 2000 cells per well in 100 μL RPMI-1640 ATCC-Formulation (Gibco # A10491)+10% FCS. Cells were incubated overnight at 37° C. in a humidified tissue culture incubator at 5% CO2. Compounds (10 mM stock in DMSO) were added at logarithmic dose series using the HP Digital Dispenser D300 (Tecan), normalizing for added DMSO. For the TO time point measurement, untreated cells were analyzed at the time of compound addition. Plates were incubated for 120 hours, and cell viability was measured using CellTiter-Glo luminescent cell viability reagent (Promega product code G7570). Viability (stated as percent of control) is defined as relative luminescence units RLU of each well divided by the RLU of cells in DMSO controls. IC50 values were determined from viability measurements by non-linear regression using a four parameter model.

Where [5] appears, read: Ba/F3 KRAS G12C cells, 72 h, 10% FCS, uncorrected, read-out: IC50 Ba/F3 KRASG12C.
The mark [6] stands for this setting: corrected by plasma protein binding in 10% FCS (fraction unbound), read-out: IC50 Ba/F3 KRASG12C (corrected).

T1 sequence (P01116 1-169 isoform P01116-2 G12C/C51S/C80L/C118S): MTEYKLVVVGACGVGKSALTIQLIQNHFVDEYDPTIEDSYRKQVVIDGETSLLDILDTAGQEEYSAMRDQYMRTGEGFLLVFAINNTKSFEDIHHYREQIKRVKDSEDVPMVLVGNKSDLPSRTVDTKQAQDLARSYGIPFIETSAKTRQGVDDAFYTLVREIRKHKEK
Sequence of Ba/F3 cells bearing a KRAS G12C mutation (P01116 whole entry G12C): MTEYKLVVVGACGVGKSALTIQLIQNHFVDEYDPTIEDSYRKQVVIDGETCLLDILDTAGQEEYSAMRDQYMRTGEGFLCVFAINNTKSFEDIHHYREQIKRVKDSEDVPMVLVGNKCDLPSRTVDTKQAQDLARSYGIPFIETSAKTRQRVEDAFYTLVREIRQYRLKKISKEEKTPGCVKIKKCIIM

`C=CC(=O)N1CCC(Oc2cc(N3CCN(C)C[C@@H]3C)nc(-c3cc(C4(C)CCCc5sc(N)c(C#N)c54)no3)n2)CC1` (stereo partly drawn) [Ic-7]: the IC50 in series [1] was 44 nM; in the series on NCI-H358 cells it was 76.8 nM. The GI50 in series [2] (setting [5]) was 35.3 nM; in series [2] (setting [6]) it was 8.9 nM. Moreover, the fraction unbound worked out at 0.02 in series [3] and 0.252 in series [4].
Regarding `COC/C=C/C(=O)N1CCN(c2cc(O[C@@H](C)[C@@H]3CCCN3C)nc(-c3cc(C4(C)CCCc5sc(N)c(C#N)c54)no3)n2)CC1` (stereo partly drawn) [Ic-9], the half-maximal inhibitory concentration (IC50) in series [1] came out at 29 nM; in the series on NCI-H358 cells, 169 nM. Further, the results for the GI50 in series [2] (setting [5]) and in series [2] (setting [6]) were 87 nM and 22.5 nM, respectively. Moreover, the figures for the fraction unbound in series [3] and in series [4] were 0.043 and 0.259, respectively.
Turning to `C=CC(=O)N1[C@H](C)CN(c2cc(O[C@@H](C)[C@@H]3CCCN3C)nc(-c3cc([C@@]4(C)CCCc5sc(N)c(C#N)c54)sn3)n2)C[C@@H]1C` [Id-2], the IC50 came out at 1.6 nM in series [1] and 2.57 nM with NCI-H358 cells. The GI50 in series [2] (setting [5]) stood at 2 nM; in series [2] (setting [6]), 0.87 nM. In addition, the figures for the fraction unbound in series [3] and in series [4] were 0.009 and 0.434, respectively.
As to `C=CC(=O)N1[C@@H](C)CN(c2cc(O[C@@H](C)[C@@H]3CCCN3C)nc(-c3cc([C@@]4(C)CCCc5sc(N)c(C#N)c54)sn3)n2)C[C@@H]1C` [Id-4], the results for the half-inhibitory concentration (IC50) (in series [1]; in the series with NCI-H358 cells) were 1.7 nM and 1.09 nM, respectively. In addition, the GI50 in series [2] (setting [5]) was determined as 1.3 nM; in series [2] (setting [6]) it was 0.48 nM. Further, the fraction unbound in series [3] came to 0.014; in series [4], 0.371.

A word on the IC50: it is the concentration at which inhibition is half-maximal.
